Results taken from ChEMBL document CHEMBL4002623, “Synthesis and in vitro activity of dicationic indolyl diphenyl ethers as novel potent antibiotic agents against drug-resistant bacteria” (Bioorg Med Chem Lett, 2017).
In brackets after ≈: the same amount, converted by molar mass.

Key:
Enterococcus faecium [1] = test: Antibacterial activity against vancomycin-sensitive Enterococcus faecium 09-10 by agar dilution method; assay type: functional
Serratia marcescens = test: Antibacterial activity against Serratia marcescens 41002 by agar dilution method; assay type: functional
Providencia rettgeri = test: Antibacterial activity against Providencia rettgeri ATCC 31052 by agar dilution method; assay type: functional
Pseudomonas aeruginosa [2] = test: Antibacterial activity against Pseudomonas aeruginosa PAO1 by agar dilution method; assay type: functional
Proteus vulgaris = test: Antibacterial activity against Proteus vulgaris ATCC 29905 by agar dilution method; assay type: functional
Klebsiella pneumoniae [3] = test: Antibacterial activity against extended-spectrum beta-lactamase-positive Klebsiella pneumoniae ATCC 700603 by agar dilution method; assay type: functional
Klebsiella pneumoniae [4] = test: Antibacterial activity against extended-spectrum beta-lactamase-negative Klebsiella pneumoniae 7 by agar dilution method; assay type: functional
[5] = tested on: Staphylococcus epidermidis; test: Antibacterial activity against methicillin-sensitive Staphylococcus epidermidis 09-9 by agar dilution method; assay type: functional
Klebsiella pneumoniae [6] = test: Antibacterial activity against extended-spectrum beta-lactamase-negative Klebsiella pneumoniae 09-8 by agar dilution method; assay type: functional
Citrobacter freundii = test: Antibacterial activity against Citrobacter freundii ATCC 43864 by agar dilution method; assay type: functional
Staphylococcus aureus [7] = test: Antibacterial activity against methicillin-sensitive Staphylococcus aureus ATCC 29213 by agar dilution method; assay type: functional
Klebsiella pneumoniae [8] = test: Antibacterial activity against extended-spectrum beta-lactamase-positive Klebsiella pneumoniae 09-25 by agar dilution method; assay type: functional
Staphylococcus aureus [9] = test: Antibacterial activity against methicillin-sensitive Staphylococcus aureus 09-6 by agar dilution method; assay type: functional
Pseudomonas aeruginosa [10] = test: Antibacterial activity against Pseudomonas aeruginosa ATCC 27853 by agar dilution method; assay type: functional
[11] = tested on: Acinetobacter calcoaceticus; test: Antibacterial activity against Acinetobacter calcoaceticus ATCC 19606 by agar dilution method; assay type: functional
Pseudomonas aeruginosa [12] = test: Antibacterial activity against Pseudomonas aeruginosa 09-14 by agar dilution method; assay type: functional
Escherichia coli [13] = test: Antibacterial activity against extended-spectrum beta-lactamase-negative Escherichia coli 09-20 by agar dilution method; assay type: functional
Proteus mirabilis = test: Antibacterial activity against Proteus mirabilis 09-1 by agar dilution method; assay type: functional
Escherichia coli [14] = test: Antibacterial activity against extended-spectrum beta-lactamase-positive Escherichia coli 09-1 by agar dilution method; assay type: functional
Morganella morganii = test: Antibacterial activity against Morganella morganii ATCC 25830 by agar dilution method; assay type: functional
Enterobacter cloacae = test: Antibacterial activity against Enterobacter cloacae 45301 by agar dilution method; assay type: functional
Klebsiella aerogenes = test: Antibacterial activity against Enterobacter aerogenes 45102 by agar dilution method; assay type: functional
[15] = Cytotoxicity against HEK293T cells after 48 hrs by MTS assay; assay type: cell-based, HEK-293T; details: human
Escherichia coli [16] = test: Antibacterial activity against extended-spectrum beta-lactamase-negative Escherichia coli 1515 by agar dilution method; assay type: functional
Klebsiella pneumoniae [17] = test: Antibacterial activity against Klebsiella pneumoniae ATCC BAA-2146 expressing NDM-1 by agar dilution method; assay type: functional
Staphylococcus aureus [18] = test: Antibacterial activity against methicillin-sensitive Staphylococcus aureus 15 by agar dilution method; assay type: functional
Escherichia coli [19] = test: Antibacterial activity against extended-spectrum beta-lactamase-negative Escherichia coli ATCC 25922 by agar dilution method; assay type: functional
Enterococcus faecalis [20] = test: Antibacterial activity against vancomycin-sensitive Enterococcus faecalis ATCC 29212 by agar dilution method; assay type: functional
Enterococcus faecalis [21] = test: Antibacterial activity against vancomycin-resistant Enterococcus faecalis ATCC 51299 by agar dilution method; assay type: functional
Enterococcus faecium [22] = test: Antibacterial activity against vancomycin-resistant Enterococcus faecium 05-8 by agar dilution method; assay type: functional
Staphylococcus aureus [23] = test: Antibacterial activity against methicillin-resistant Staphylococcus aureus 09-13 by agar dilution method; assay type: functional
Enterococcus faecalis [24] = test: Antibacterial activity against vancomycin-resistant Enterococcus faecalis 09-9 by agar dilution method; assay type: functional
Staphylococcus aureus [25] = test: Antibacterial activity against methicillin-resistant Staphylococcus aureus ATCC 33591 by agar dilution method; assay type: functional
[26] = tested on: Staphylococcus epidermidis; test: Antibacterial activity against methicillin-sensitive Staphylococcus epidermidis ATCC 12228 by agar dilution method; assay type: functional
Salmonella typhi = test: Antibacterial activity against Salmonella typhi H901 by agar dilution method; assay type: functional, Salmonella enterica subsp. enterica serovar Typhi; details: Salmonella enterica
Enterococcus faecalis [27] = test: Antibacterial activity against vancomycin-sensitive Enterococcus faecalis 09-8 by agar dilution method; assay type: functional
Enterococcus faecium [28] = test: Antibacterial activity against vancomycin-resistant Enterococcus faecium ATCC 700221 by agar dilution method; assay type: functional
[29] = tested on: Staphylococcus epidermidis; test: Antibacterial activity against methicillin-resistant Staphylococcus epidermidis 09-3 by agar dilution method; assay type: functional

Structure (SMILES) | MIC (Enterococcus faecium [1]) [µg/mL] | MIC (Serratia marcescens) [µg/mL] | MIC (Providencia rettgeri) [µg/mL] | MIC (Proteus vulgaris) [µg/mL] | MIC [5] [µg/mL] | MIC (Klebsiella pneumoniae [6]) [µg/mL] | MIC (Citrobacter freundii) [µg/mL] | MIC (Staphylococcus aureus [7]) [µg/mL] | MIC (Klebsiella pneumoniae [8]) [µg/mL] | MIC (Staphylococcus aureus [9]) [µg/mL] | MIC [11] [µg/mL] | MIC (Proteus mirabilis) [µg/mL] | MIC (Escherichia coli [14]) [µg/mL] | MIC (Morganella morganii) [µg/mL] | MIC (Enterobacter cloacae) [µg/mL] | MIC (Klebsiella aerogenes) [µg/mL] | MIC (Klebsiella pneumoniae [17]) [µg/mL] | MIC (Staphylococcus aureus [18]) [µg/mL] | MIC (Escherichia coli [19]) [µg/mL] | MIC (Enterococcus faecalis [20]) [µg/mL] | other results
c1cc(-c2cc3ccc(C4=NCCN4)cc3[nH]2)ccc1Oc1ccc(-c2cc3ccc(C4=NCCN4)cc3[nH]2)cc1 | 8 (≈ 14.9 µM) | > 128 | > 128 | > 128 | 2 (≈ 3.73 µM) | > 128 | > 128 | 16 (≈ 29.8 µM) | > 128 | 16 (≈ 29.8 µM) | > 128 | > 128 | > 128 | > 128 | > 128 | > 128 | > 128 | 8 (≈ 14.9 µM) | > 128 | – | MIC (Pseudomonas aeruginosa [2]): > 128 µg/mL; MIC (Klebsiella pneumoniae [3]): > 128 µg/mL; MIC (Klebsiella pneumoniae [4]): > 128 µg/mL; MIC (Pseudomonas aeruginosa [10]): > 128 µg/mL; MIC (Pseudomonas aeruginosa [12]): > 128 µg/mL; MIC (Escherichia coli [13]): > 128 µg/mL; CC50 at 48 h [15]: 1.7 µg/mL (≈ 3.17 µM); MIC (Escherichia coli [16]): > 128 µg/mL
C[C@H]1COc2c(N3CCN(C)CC3)c(F)cc3c(=O)c(C(=O)O)cn1c23.C[C@H]1COc2c(N3CCN(C)CC3)c(F)cc3c(=O)c(C(=O)O)cn1c23.O [LEVOFLOXACIN] | 64 | 0.25 | ≤ 0.03 | ≤ 0.03 | 8 | ≤ 0.03 | ≤ 0.03 | 0.125 | 4 | 0.25 | 0.25 | 2 | 16 | ≤ 0.03 | 0.06 | 0.06 | > 128 | 0.125 | 0.03 to 0.06 | 0.5 | MIC (Enterococcus faecalis [21]): 0.5 µg/mL; MIC (Enterococcus faecium [22]): 64 µg/mL; MIC (Staphylococcus aureus [23]): 32 µg/mL; MIC (Enterococcus faecalis [24]): 128 µg/mL; MIC (Staphylococcus aureus [25]): 0.125 µg/mL; MIC [26]: 0.25 µg/mL; MIC (Salmonella typhi): ≤ 0.03 µg/mL; MIC (Enterococcus faecalis [27]): 1 µg/mL; MIC (Enterococcus faecium [28]): 64 µg/mL; MIC [29]: 8 µg/mL
CN[C@H](CC(C)C)C(=O)N[C@H]1C(=O)N[C@@H](CC(N)=O)C(=O)N[C@H]2C(=O)N[C@H]3C(=O)N[C@H](C(=O)N[C@H](C(=O)O)c4cc(O)cc(O)c4-c4cc3ccc4O)[C@H](O)c3ccc(c(Cl)c3)Oc3cc2cc(c3O[C@@H]2O[C@H](CO)[C@@H](O)[C@H](O)[C@H]2O[C@H]2C[C@](C)(N)[C@H](O)[C@H](C)O2)Oc2ccc(cc2Cl)[C@H]1O [VANCOMYCIN] | – | – | – | – | 0.5 (≈ 0.345 µM) | – | – | – | – | – | – | – | – | – | – | – | – | – | – | 1 (≈ 0.69 µM) | MIC [26]: 0.5 µg/mL (≈ 0.345 µM); MIC (Enterococcus faecalis [27]): 1 µg/mL (≈ 0.69 µM)
